Reference: patent EP4745137A1 (Gluetacs Therapeutics (Shanghai) Co., Ltd., priority 2023, dated 2025)

Experiments:
Assay type in all cases: cell-based
Details in all cases: 24 hours of compound treatment
WEE1 = molecular target: T1, WEE1 (Homo sapiens, UniProt P30291+Q96SW2); assay: Western-blot assay of substrate protein degradation in hPBMCs, WEE1
T1 construct: endogenous in cells; host or cells: hPBMCs (Milecell Biotechnologies)

IKZF1 = molecular target: T2, IKZF1 (Homo sapiens, UniProt Q13422+Q96SW2); assay: Western-blot assay of substrate protein degradation in hPBMCs, IKZF1
T2 construct: endogenous in cells; host or cells: hPBMCs (Milecell Biotechnologies)
T2 sequence (Q13422 whole entry): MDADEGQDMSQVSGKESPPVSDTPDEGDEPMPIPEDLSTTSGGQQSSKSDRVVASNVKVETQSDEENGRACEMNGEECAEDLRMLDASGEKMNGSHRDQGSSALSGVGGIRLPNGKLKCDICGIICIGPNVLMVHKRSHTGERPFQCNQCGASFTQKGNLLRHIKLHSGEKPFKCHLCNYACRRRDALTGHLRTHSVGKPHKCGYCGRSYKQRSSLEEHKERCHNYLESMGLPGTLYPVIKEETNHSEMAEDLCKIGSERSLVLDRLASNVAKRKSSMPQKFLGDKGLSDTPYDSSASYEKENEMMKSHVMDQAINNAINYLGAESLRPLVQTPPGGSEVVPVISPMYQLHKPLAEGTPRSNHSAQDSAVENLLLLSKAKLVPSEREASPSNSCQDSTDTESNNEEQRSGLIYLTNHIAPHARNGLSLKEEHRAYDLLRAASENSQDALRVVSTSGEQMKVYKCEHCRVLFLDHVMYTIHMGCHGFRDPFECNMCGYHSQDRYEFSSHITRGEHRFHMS
T2 sequence (Q96SW2 whole entry): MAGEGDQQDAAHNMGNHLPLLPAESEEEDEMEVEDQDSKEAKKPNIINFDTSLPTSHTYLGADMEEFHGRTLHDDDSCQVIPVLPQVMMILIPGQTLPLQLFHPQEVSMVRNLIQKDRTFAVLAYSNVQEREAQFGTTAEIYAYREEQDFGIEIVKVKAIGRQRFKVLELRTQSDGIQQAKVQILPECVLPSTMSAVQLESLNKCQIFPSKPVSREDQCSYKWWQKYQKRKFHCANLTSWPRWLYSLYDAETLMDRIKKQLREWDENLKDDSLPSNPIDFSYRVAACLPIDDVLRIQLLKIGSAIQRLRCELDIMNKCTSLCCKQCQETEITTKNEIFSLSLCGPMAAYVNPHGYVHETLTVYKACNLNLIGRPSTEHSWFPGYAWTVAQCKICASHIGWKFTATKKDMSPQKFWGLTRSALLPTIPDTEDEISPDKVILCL
T2 sequence (Q16531 whole entry partner): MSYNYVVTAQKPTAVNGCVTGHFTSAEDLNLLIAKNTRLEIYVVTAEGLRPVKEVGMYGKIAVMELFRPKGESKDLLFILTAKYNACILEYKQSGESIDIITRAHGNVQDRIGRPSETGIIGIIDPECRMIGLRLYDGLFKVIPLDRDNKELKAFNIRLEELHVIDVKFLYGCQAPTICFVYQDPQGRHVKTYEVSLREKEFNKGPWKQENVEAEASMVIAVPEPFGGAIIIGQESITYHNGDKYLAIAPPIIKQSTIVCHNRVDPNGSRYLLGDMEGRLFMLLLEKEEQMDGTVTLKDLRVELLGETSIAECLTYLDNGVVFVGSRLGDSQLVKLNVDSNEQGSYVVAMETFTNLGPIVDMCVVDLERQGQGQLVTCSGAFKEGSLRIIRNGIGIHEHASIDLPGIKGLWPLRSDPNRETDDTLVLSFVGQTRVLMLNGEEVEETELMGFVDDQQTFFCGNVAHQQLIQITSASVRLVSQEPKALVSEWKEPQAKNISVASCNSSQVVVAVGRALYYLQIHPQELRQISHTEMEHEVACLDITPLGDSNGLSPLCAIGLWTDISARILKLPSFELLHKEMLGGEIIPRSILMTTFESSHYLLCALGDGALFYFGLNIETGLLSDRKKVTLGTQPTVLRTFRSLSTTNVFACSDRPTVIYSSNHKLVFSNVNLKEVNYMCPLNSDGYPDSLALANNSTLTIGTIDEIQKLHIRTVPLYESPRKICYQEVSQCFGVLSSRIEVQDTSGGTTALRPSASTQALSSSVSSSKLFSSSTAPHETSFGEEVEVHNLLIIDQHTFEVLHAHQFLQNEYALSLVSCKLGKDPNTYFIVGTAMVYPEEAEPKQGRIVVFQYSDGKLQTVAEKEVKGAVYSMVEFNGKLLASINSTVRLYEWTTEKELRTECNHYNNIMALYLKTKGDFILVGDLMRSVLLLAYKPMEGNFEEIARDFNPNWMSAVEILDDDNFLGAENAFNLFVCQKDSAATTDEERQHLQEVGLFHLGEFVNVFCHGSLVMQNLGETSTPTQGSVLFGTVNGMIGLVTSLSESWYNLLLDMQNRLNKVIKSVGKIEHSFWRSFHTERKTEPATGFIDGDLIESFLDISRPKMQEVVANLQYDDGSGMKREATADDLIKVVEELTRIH

IKZF2 = molecular target: T3, IKZF2 (Homo sapiens, UniProt Q96SW2+Q9UKS7); assay: Western-blot assay of substrate protein degradation in hPBMCs, IKZF2
T3 construct: endogenous in cells; host or cells: hPBMCs (Milecell Biotechnologies)
T3 sequence (Q9UKS7 whole entry): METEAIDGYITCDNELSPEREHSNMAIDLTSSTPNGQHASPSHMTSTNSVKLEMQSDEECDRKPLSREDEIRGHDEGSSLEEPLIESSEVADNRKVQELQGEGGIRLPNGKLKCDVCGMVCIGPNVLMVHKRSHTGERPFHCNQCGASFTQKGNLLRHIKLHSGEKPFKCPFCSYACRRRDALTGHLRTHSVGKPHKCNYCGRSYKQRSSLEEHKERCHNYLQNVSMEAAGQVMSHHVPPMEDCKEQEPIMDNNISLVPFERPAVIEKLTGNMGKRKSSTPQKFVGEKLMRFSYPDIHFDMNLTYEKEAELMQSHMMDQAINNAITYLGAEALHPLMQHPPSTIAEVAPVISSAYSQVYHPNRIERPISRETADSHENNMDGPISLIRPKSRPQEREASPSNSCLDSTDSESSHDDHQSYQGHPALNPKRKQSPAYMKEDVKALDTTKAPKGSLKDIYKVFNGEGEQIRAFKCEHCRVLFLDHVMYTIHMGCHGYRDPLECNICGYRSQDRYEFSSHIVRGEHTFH
T3 sequence (Q96SW2 whole entry): as the sequence (Q96SW2 whole entry) above
T3 sequence (Q16531 whole entry partner): as the sequence (Q16531 whole entry partner) above

IKZF3 = molecular target: T4, IKZF3 (Homo sapiens, UniProt Q96SW2+Q9UKT9); assay: Western-blot assay of substrate protein degradation in hPBMCs, IKZF3
T4 construct: endogenous in cells; host or cells: hPBMCs (Milecell Biotechnologies)

CK1α = molecular target: T5, CK1α (Homo sapiens, UniProt P48729+Q96SW2); assay: Western-blot assay of substrate protein degradation in hPBMCs, CK1α
T5 construct: endogenous in cells; host or cells: hPBMCs (Milecell Biotechnologies)
T5 sequence (P48729 whole entry): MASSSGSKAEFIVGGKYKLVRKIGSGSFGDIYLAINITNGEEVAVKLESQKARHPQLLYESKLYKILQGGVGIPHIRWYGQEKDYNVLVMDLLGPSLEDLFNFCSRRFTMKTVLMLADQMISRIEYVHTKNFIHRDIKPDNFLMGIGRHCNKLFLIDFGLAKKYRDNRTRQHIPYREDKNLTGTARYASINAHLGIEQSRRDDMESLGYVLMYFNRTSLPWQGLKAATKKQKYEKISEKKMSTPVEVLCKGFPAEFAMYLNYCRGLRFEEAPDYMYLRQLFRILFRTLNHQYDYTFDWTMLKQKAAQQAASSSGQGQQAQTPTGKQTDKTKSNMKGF
T5 sequence (Q96SW2 whole entry): as the sequence (Q96SW2 whole entry) above
T5 sequence (Q16531 whole entry partner): as the sequence (Q16531 whole entry partner) above

GSPT1 = molecular target: T6, GSPT1 (Homo sapiens, UniProt P15170+Q96SW2); assay: Western-blot assay of substrate protein degradation in hPBMCs, GSPT1
T6 construct: endogenous in cells; host or cells: hPBMCs (Milecell Biotechnologies)
T6 sequence (P15170 whole entry): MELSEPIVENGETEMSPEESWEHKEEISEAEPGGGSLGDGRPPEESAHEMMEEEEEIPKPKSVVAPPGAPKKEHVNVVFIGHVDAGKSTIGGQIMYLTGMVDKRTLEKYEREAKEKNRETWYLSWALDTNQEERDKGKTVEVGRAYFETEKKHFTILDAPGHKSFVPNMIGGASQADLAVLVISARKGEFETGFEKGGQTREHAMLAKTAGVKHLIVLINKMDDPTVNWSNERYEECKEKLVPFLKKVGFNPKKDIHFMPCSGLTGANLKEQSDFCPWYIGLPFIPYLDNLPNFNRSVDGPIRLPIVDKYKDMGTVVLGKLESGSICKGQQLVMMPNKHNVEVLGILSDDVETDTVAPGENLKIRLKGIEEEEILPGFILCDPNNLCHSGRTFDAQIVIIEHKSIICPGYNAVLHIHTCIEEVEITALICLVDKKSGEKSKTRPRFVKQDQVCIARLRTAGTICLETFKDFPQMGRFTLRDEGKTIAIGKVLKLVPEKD
T6 sequence (Q96SW2 whole entry): as the sequence (Q96SW2 whole entry) above
T6 sequence (Q16531 whole entry partner): as the sequence (Q16531 whole entry partner) above

[1] = 50 nM and 500 nM tested (concentration behind the class not stated)
[2] = compounds tested at 50 nM and 500 nM (concentration of the table not stated)

T1 sequence (P30291 whole entry): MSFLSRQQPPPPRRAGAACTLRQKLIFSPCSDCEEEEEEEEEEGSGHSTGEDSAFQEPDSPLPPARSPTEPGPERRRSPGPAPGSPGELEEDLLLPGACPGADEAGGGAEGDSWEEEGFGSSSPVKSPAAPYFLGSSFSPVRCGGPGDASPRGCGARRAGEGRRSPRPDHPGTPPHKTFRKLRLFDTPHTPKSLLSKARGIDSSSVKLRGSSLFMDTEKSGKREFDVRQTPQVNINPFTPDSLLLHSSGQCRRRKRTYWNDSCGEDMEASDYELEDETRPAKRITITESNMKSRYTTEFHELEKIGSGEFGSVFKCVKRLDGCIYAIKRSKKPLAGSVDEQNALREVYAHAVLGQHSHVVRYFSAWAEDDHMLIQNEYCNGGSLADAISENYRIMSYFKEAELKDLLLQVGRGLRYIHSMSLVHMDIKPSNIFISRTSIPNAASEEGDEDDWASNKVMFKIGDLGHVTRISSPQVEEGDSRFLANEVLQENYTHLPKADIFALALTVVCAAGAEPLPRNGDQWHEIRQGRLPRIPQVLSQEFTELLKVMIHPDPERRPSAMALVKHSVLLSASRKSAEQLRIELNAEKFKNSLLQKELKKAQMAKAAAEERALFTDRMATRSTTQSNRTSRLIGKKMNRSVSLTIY
T1 sequence (Q96SW2 whole entry): as the sequence (Q96SW2 whole entry) above
T1 sequence (Q16531 whole entry partner): as the sequence (Q16531 whole entry partner) above

Row | Structure (SMILES) | Weel substrate protein remaining % (WEE1; [1]) | IKZF 1 substrate protein remaining % (IKZF1; [1]) | IKZF2 substrate protein remaining % (IKZF2; [1]) | IKZF3 substrate protein remaining % (IKZF3; [1]) | CK1a substrate protein remaining % (CK1α; [1]) | GSPT1 substrate protein remaining % (GSPT1; [1]) | Weel substrate protein remaining % (WEE1; [2]) | IKZF 1 substrate protein remaining % (IKZF1; [2]) | IKZF2 substrate protein remaining % (IKZF2; [2]) | IKZF3 substrate protein remaining % (IKZF3; [2]) | CK1a substrate protein remaining % (CK1α; [2]) | GSPT1 substrate protein remaining % (GSPT1; [2])
1 | O=C1CCC(N2C(=O)c3ccc(CN4CCN(c5c(Cl)ccnc5Cl)CC4)cc3C2=O)C(=O)N1 (stereo not drawn) [GT-06552, 5-((4-(2,4-dichloropyridin-3-yl)piperazin-1-yl)methyl)-2-(2,6-dioxopiperidin-3-yl)isoindoline-1,3-dione] | B (80%< substrate protein remaining %≤ 100%) | B (80%< substrate protein remaining %≤ 100%) | A (0% ≤ substrate protein remaining % ≤ 80%) | B (80%< substrate protein remaining %≤ 100%) | B (80%< substrate protein remaining %≤ 100%) | A (0% ≤ substrate protein remaining % ≤ 80%) | – | – | – | – | – | –
2 | Cc1cc2c(N3CCN(Cc4ccc5c(c4)C(=O)N(C4CCC(=O)NC4=O)C5=O)CC3)ncnc2s1 (stereo not drawn) [GT-06305, 2-(2,6-dioxopiperidin-3-yl)-5-((4-(6-methylthieno[2,3-d]pyrimidin-4-yl)piperazin-1-yl)methyl)isoindoline-1,3-dione] | B (80%< substrate protein remaining %≤ 100%) | B (80%< substrate protein remaining %≤ 100%) | B (80%< substrate protein remaining %≤ 100%) | B (80%< substrate protein remaining %≤ 100%) | A (0% ≤ substrate protein remaining % ≤ 80%) | B (80%< substrate protein remaining %≤ 100%) | – | – | – | – | – | –
3 | O=C1CCC(N2C(=O)c3ccc(CN4CCC(c5ccnc6cc(F)ccc56)CC4)cc3C2=O)C(=O)N1 (stereo not drawn) [GT-06265, 2-(2,6-dioxopiperidin-3-yl)-5-((4-(7-fluoroquinolin-4-yl)piperidin-1-yl)methyl)isoindoline-1,3-dione] | – | – | – | – | – | – | B (80%< substrate protein remaining %≤ 100%) | B (80%< substrate protein remaining %≤ 100%) | A (0% ≤ substrate protein remaining % ≤ 80%) | B (80%< substrate protein remaining %≤ 100%) | B (80%< substrate protein remaining %≤ 100%) | B (80%< substrate protein remaining %≤ 100%)
4 | O=C1CCC(N2C(=O)c3ccc(CN4CCN(c5cc(Cl)cc(Cl)c5)CC4)cc3C2=O)C(=O)N1 (stereo not drawn) [GT-06299, 5-((4-(3,5-dichlorophenyl)piperazin-1-yl)methyl)-2-(2,6-dioxopiperidin-3-yl)isoindoline-1,3-dione] | B (80%< substrate protein remaining %≤ 100%) | B (80%< substrate protein remaining %≤ 100%) | B (80%< substrate protein remaining %≤ 100%) | B (80%< substrate protein remaining %≤ 100%) | B (80%< substrate protein remaining %≤ 100%) | A (0% ≤ substrate protein remaining % ≤ 80%) | – | – | – | – | – | –
5 | O=C1CCC(N2Cc3cc(CN4CCn5c(nnc5C(F)(F)F)C4)ccc3C2=O)C(=O)N1 (stereo not drawn) [GT-04199, 3-(1-oxo-5-((3-(trifluoromethyl)-5,6-dihydro-[1,2,4]triazolo[4,3-a]pyrazin-7(8H)-yl)methyl)isoindolin-2-yl)piperidine-2,6-dione] | – | – | – | – | – | – | A (0% ≤ substrate protein remaining % ≤ 80%) | B (80%< substrate protein remaining %≤ 100%) | A (0% ≤ substrate protein remaining % ≤ 80%) | A (0% ≤ substrate protein remaining % ≤ 80%) | B (80%< substrate protein remaining %≤ 100%) | B (80%< substrate protein remaining %≤ 100%)
6 | Cc1nc(N2CCN(Cc3ccc4c(c3)C(=O)N(C3CCC(=O)NC3=O)C4=O)CC2)c2ccsc2n1 (stereo not drawn) [GT-06347, 2-(2,6-dioxopiperidin-3-yl)-5-((4-(2-methylthieno[2,3-d]pyrimidin-4-yl)piperazin-1-yl)methyl)isoindoline-1,3-dione] | B (80%< substrate protein remaining %≤ 100%) | A (0% ≤ substrate protein remaining % ≤ 80%) | A (0% ≤ substrate protein remaining % ≤ 80%) | A (0% ≤ substrate protein remaining % ≤ 80%) | B (80%< substrate protein remaining %≤ 100%) | B (80%< substrate protein remaining %≤ 100%) | – | – | – | – | – | –
7 | O=C1CCC(N2C(=O)c3ccc(CN4CCN(c5ncccc5C(F)(F)F)CC4)cc3C2=O)C(=O)N1 (stereo not drawn) [GT-06529, 2-(2,6-dioxopiperidin-3-yl)-5-((4-(3-(trifluoromethyl)pyridin-2-yl)piperazin-1-yl)methyl)isoindoline-1,3-dione] | A (0% ≤ substrate protein remaining % ≤ 80%) | B (80%< substrate protein remaining %≤ 100%) | A (0% ≤ substrate protein remaining % ≤ 80%) | A (0% ≤ substrate protein remaining % ≤ 80%) | B (80%< substrate protein remaining %≤ 100%) | A (0% ≤ substrate protein remaining % ≤ 80%) | – | – | – | – | – | –
8 | O=C1CCC(N2C(=O)c3ccc(CN4C5CC4CN(c4cccc(Cl)c4Cl)C5)cc3C2=O)C(=O)N1 (stereo not drawn) [GT-06688, 5-((3-(2,3-dichlorophenyl)-3,6-diazabicyclo[3.1.1]heptan-6-yl)methyl)-2-(2,6-dioxopiperidin-3-yl)isoindoline-1,3-dione] | B (80%< substrate protein remaining %≤ 100%) | B (80%< substrate protein remaining %≤ 100%) | B (80%< substrate protein remaining %≤ 100%) | B (80%< substrate protein remaining %≤ 100%) | B (80%< substrate protein remaining %≤ 100%) | A (0% ≤ substrate protein remaining % ≤ 80%) | – | – | – | – | – | –
9 | O=C1CCC(N2C(=O)c3ccc(CN4CCN(c5cc(Cl)ccc5Cl)CC4)cc3C2=O)C(=O)N1 (stereo not drawn) [GT-06356, 5-((4-(2,5-dichlorophenyl)piperazin-1-yl)methyl)-2-(2,6-dioxopiperidin-3-yl)isoindoline-1,3-dione] | B (80%< substrate protein remaining %≤ 100%) | B (80%< substrate protein remaining %≤ 100%) | B (80%< substrate protein remaining %≤ 100%) | B (80%< substrate protein remaining %≤ 100%) | B (80%< substrate protein remaining %≤ 100%) | A (0% ≤ substrate protein remaining % ≤ 80%) | – | – | – | – | – | –
10 | O=C1CCC(N2C(=O)c3ccc(CN4CCC(c5ccc(F)cc5)CC4)cc3C2=O)C(=O)N1 (stereo not drawn) [GT-06374, 2-(2,6-dioxopiperidin-3-yl)-5-((4-(4-fluorophenyl)piperidin-1-yl)methyl)isoindoline-1,3-dione] | A (0% ≤ substrate protein remaining % ≤ 80%) | A (0% ≤ substrate protein remaining % ≤ 80%) | A (0% ≤ substrate protein remaining % ≤ 80%) | B (80%< substrate protein remaining %≤ 100%) | B (80%< substrate protein remaining %≤ 100%) | A (0% ≤ substrate protein remaining % ≤ 80%) | – | – | – | – | – | –
11 | Cc1cc2c(C3CCN(Cc4ccc5c(c4)C(=O)N(C4CCC(=O)NC4=O)C5=O)CC3)ncnc2s1 (stereo not drawn) [GT-06592, 2-(2,6-dioxopiperidin-3-yl)-5-((4-(6-methylthieno[2,3-d]pyrimidin-4-yl)piperidin-1-yl)methyl)isoindoline-1,3-dione] | A (0% ≤ substrate protein remaining % ≤ 80%) | A (0% ≤ substrate protein remaining % ≤ 80%) | A (0% ≤ substrate protein remaining % ≤ 80%) | A (0% ≤ substrate protein remaining % ≤ 80%) | B (80%< substrate protein remaining %≤ 100%) | A (0% ≤ substrate protein remaining % ≤ 80%) | – | – | – | – | – | –
12 | O=C1CCC(N2Cc3c(CN4CCN(c5cccc6sccc56)CC4)cccc3C2=O)C(=O)N1 (stereo not drawn) [GT-04914, 3-(4-((4-(benzo[b]thiophen-4-yl)piperazin-1-yl)methyl)-1-oxoisoindolin-2-yl)piperidine-2,6-dione] | – | – | – | – | – | – | A (0% ≤ substrate protein remaining % ≤ 80%) | A (0% ≤ substrate protein remaining % ≤ 80%) | B (80%< substrate protein remaining %≤ 100%) | B (80%< substrate protein remaining %≤ 100%) | A (0% ≤ substrate protein remaining % ≤ 80%) | A (0% ≤ substrate protein remaining % ≤ 80%)
